Measured values published in PubChem BioAssay (NCI).
Values joined by “and” are separate entries in the source; they are usually repeats but may differ in a detail not shown here. Identical values can stand only once.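 Grown in 96-well plates, cells were treated for 48 hours with each compound at five concentrations. Insufficient inhibition: endpoint recorded as highest concentration tested. GI50 = concentration required for 50% inhibition of growth. The concentration for full growth arrest is given as TGI.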

Experiments:
Experiment in all cases: NCI tumour cell line growth inhibition, 48 h
LXFL 529 NSCLC = tested on: LXFL 529 NSCLC
DMS 114 small cell lung = tested on: DMS 114 small cell lung
KM20L2 colon = tested on: KM20L2 colon
HCT-15 colon = tested on: HCT-15 colon
HCT-116 colon = tested on: HCT-116 colon
RPMI-8226 leukemia = tested on: RPMI-8226 leukemia
CAKI-1 renal = tested on: CAKI-1 renal
CCRF-CEM leukemia = tested on: CCRF-CEM leukemia
MDA-MB-231 breast = tested on: MDA-MB-231 breast
HS 578T breast = tested on: HS 578T breast
PC-3 prostate = tested on: PC-3 prostate

Cc1nn(C)c(=O)c2nn(-c3ccccc3)c(C)c12
TGI (LXFL 529 NSCLC): > 100 µM
TGI (DMS 114 small cell lung): > 100 µM
TGI (KM20L2 colon): > 100 µM
TGI (HCT-15 colon): > 100 µM
TGI (HCT-116 colon): > 100 µM
TGI (RPMI-8226 leukemia): > 100 µM
TGI (CAKI-1 renal): > 100 µM
TGI (CCRF-CEM leukemia): > 100 µM

C=CCNC(=S)OCCCCCCCCCC
TGI (LXFL 529 NSCLC): 28.5 µM
TGI (DMS 114 small cell lung): 32.1 µM
TGI (KM20L2 colon): 33.2 µM
TGI (HCT-15 colon): 29.4 µM
TGI (HCT-116 colon): 30.6 µM
TGI (RPMI-8226 leukemia): 38.9 µM
TGI (CAKI-1 renal): 34 µM
TGI (CCRF-CEM leukemia): 37.4 µM

COc1cc(/C=C2\CCc3ccccc3C2=O)cc(OC)c1OC
TGI (LXFL 529 NSCLC): 29.5 µM
TGI (DMS 114 small cell lung): 25.1 µM
TGI (KM20L2 colon): 31.1 µM
TGI (HCT-15 colon): 34.5 µM
TGI (HCT-116 colon): 28 µM
TGI (RPMI-8226 leukemia): 31.3 µM
TGI (CAKI-1 renal): 29.8 µM
TGI (CCRF-CEM leukemia): 75.1 µM

CCc1cccc(C(C)CC)c1NC(=O)CC1C(=O)Nc2ccccc2S1=O (stereo unspecified)
TGI (LXFL 529 NSCLC): > 100 µM
TGI (DMS 114 small cell lung): > 100 µM
TGI (KM20L2 colon): > 100 µM
TGI (HCT-15 colon): > 100 µM
TGI (HCT-116 colon): > 100 µM
TGI (RPMI-8226 leukemia): > 100 µM
TGI (CAKI-1 renal): > 100 µM
TGI (CCRF-CEM leukemia): 90.3 µM

Cc1cccc(N2C(=O)C(=O)C(c3nc4ccccc4s3)C(=O)C2=O)c1C
TGI (LXFL 529 NSCLC): > 100 µM
TGI (DMS 114 small cell lung): > 100 µM
TGI (KM20L2 colon): > 100 µM
TGI (HCT-15 colon): > 100 µM
TGI (HCT-116 colon): > 100 µM
TGI (RPMI-8226 leukemia): > 100 µM
TGI (CAKI-1 renal): > 100 µM
TGI (CCRF-CEM leukemia): > 100 µM

Cc1ccc(N(C(=O)CC(=O)N2N=C(c3ccccc3)C(N=Nc3ccc([N+](=O)[O-])cc3)C2=O)C(=O)c2ccc(Cl)cc2)cc1 (stereo unspecified)
TGI (LXFL 529 NSCLC): > 52.9 µM
TGI (DMS 114 small cell lung): > 51.1 µM
TGI (KM20L2 colon): > 100 µM
TGI (HCT-15 colon): > 48.6 µM
TGI (HCT-116 colon): 22.4 µM
TGI (RPMI-8226 leukemia): > 59.1 µM
TGI (CAKI-1 renal): > 76.8 µM
TGI (CCRF-CEM leukemia): > 30.9 µM

CC(C)c1ccc(O)c(=O)cc1
TGI (LXFL 529 NSCLC): > 100 µM
TGI (DMS 114 small cell lung): 11.5 µM
TGI (KM20L2 colon): > 100 µM
GI50 (MDA-MB-231 breast): 13.4 µM
GI50 (HCT-15 colon): 4.95 µM
TGI (HCT-15 colon): > 100 µM
GI50 (HCT-116 colon): 3.92 µM
TGI (HCT-116 colon): 13.4 µM and 37.2 µM
GI50 (RPMI-8226 leukemia): 6.35 µM
TGI (RPMI-8226 leukemia): > 80.5 µM
GI50 (CAKI-1 renal): 8.54 µM
TGI (CAKI-1 renal): > 70.1 µM
GI50 (CCRF-CEM leukemia): 1.67 µM
TGI (CCRF-CEM leukemia): > 41 µM and 4.89 µM

CCOC(=O)C1(C(=O)OCC)CC=C(C)CC12C(=O)Nc1ccccc12 (stereo unspecified)
TGI (LXFL 529 NSCLC): > 100 µM
TGI (DMS 114 small cell lung): > 100 µM
TGI (KM20L2 colon): > 100 µM
TGI (HCT-15 colon): > 100 µM
TGI (HCT-116 colon): > 100 µM
TGI (RPMI-8226 leukemia): > 100 µM
TGI (CAKI-1 renal): > 100 µM
TGI (CCRF-CEM leukemia): > 100 µM

COc1ccc(S(=O)(=O)N/N=C(\C)CN2C(=O)c3ccccc3C2=O)cc1
TGI (LXFL 529 NSCLC): > 100 µM
TGI (DMS 114 small cell lung): > 100 µM
TGI (KM20L2 colon): > 100 µM
TGI (HCT-15 colon): > 100 µM
TGI (HCT-116 colon): > 100 µM
TGI (RPMI-8226 leukemia): > 100 µM
TGI (CAKI-1 renal): > 100 µM
TGI (CCRF-CEM leukemia): > 100 µM

COc1cccc2c1C(=O)c1c(O)c3c(c(O)c1C2=O)C[C@@](O)(/C(C)=N\O)C[C@@H]3OC1CC(N)C(O)C(C)O1 (stereo partly specified)
TGI (LXFL 529 NSCLC): 7.11 µM
TGI (DMS 114 small cell lung): 2.58 µM
TGI (HS 578T breast): 6.58 µM
TGI (KM20L2 colon): 30.9 µM
TGI (MDA-MB-231 breast): 7.17 µM
TGI (HCT-15 colon): > 100 µM
TGI (HCT-116 colon): 7.55 µM
TGI (PC-3 prostate): 8.08 µM
TGI (RPMI-8226 leukemia): 8.33 µM
TGI (CAKI-1 renal): 22.6 µM
TGI (CCRF-CEM leukemia): 2.38 µM

O=C(CC(=O)c1ccccc1NC1=Cc2ccccc2C(=O)C1=O)C(=O)NC1=C(Cl)C(=O)c2ccccc2C1=O
TGI (LXFL 529 NSCLC): 8.6 µM
TGI (DMS 114 small cell lung): 4 µM
TGI (HS 578T breast): 5.64 µM
TGI (KM20L2 colon): 30.5 µM
TGI (MDA-MB-231 breast): 8.95 µM
TGI (HCT-15 colon): 6.03 µM
TGI (HCT-116 colon): 6.37 µM
TGI (PC-3 prostate): 6.69 µM
TGI (RPMI-8226 leukemia): 14.5 µM
TGI (CAKI-1 renal): 24.1 µM
TGI (CCRF-CEM leukemia): 33.6 µM

O=C1c2ccccc2C2(O)Oc3cccc(O)c3C12O (stereo unspecified)
TGI (LXFL 529 NSCLC): > 100 µM
TGI (DMS 114 small cell lung): > 100 µM
TGI (KM20L2 colon): > 100 µM
TGI (HCT-15 colon): > 100 µM
TGI (HCT-116 colon): > 100 µM
TGI (RPMI-8226 leukemia): > 100 µM
TGI (CAKI-1 renal): > 100 µM
TGI (CCRF-CEM leukemia): > 100 µM

COc1ccc(/C=C/C(C(=O)O)C(=O)O)cc1
TGI (LXFL 529 NSCLC): > 100 µM
TGI (DMS 114 small cell lung): > 100 µM
TGI (KM20L2 colon): > 100 µM
TGI (HCT-15 colon): > 100 µM
TGI (HCT-116 colon): > 100 µM
TGI (RPMI-8226 leukemia): > 100 µM
TGI (CAKI-1 renal): > 100 µM
TGI (CCRF-CEM leukemia): 82.3 µM
